Reference: the NIST ThermoML archive (doi:10.1016/j.jct.2012.05.001)
± gives the expanded uncertainty stated by the source.

Settings: 101.33 kPa, Liquid; for viscosity: Falling or rolling sphere viscometry; for mass density: Vibrating tube method

| SMILES | viscosity (293.15 K) [mPa·s] | mass density (293.15 K) [kg/m3] | viscosity (298.15 K) [mPa·s] | mass density (298.15 K) [kg/m3] | viscosity (303.15 K) [mPa·s] | mass density (303.15 K) [kg/m3] | viscosity (323.15 K) [mPa·s] | mass density (323.15 K) [kg/m3] | viscosity (343.15 K) [mPa·s] | mass density (343.15 K) [kg/m3] |
| --- | --- | --- | --- | --- | --- | --- | --- | --- | --- | --- |
| NCCO.O=CO [2-hydroxyethylammonium formate] | 67.61 ± 1.1 | 1178.5 ± 25 | 52.01 ± 0.61 | 1175.1 ± 25 | 40.51 ± 0.52 | 1171.7 ± 25 | 18.19 ± 0.26 | 1158.1 ± 25 | 9.698 ± 0.14 | 1144.3 ± 25 |
| O=C[O-].OCC[NH2+]CCO [diethanolammonium formate] | 807.6 ± 98 | 1205 ± 25 | 533.41 ± 56 | 1201.7 ± 25 | 369.63 ± 32 | 1198.3 ± 25 | 106.16 ± 3.9 | 1185 ± 25 | 41.09 ± 0.8 | 1171.7 ± 25 |
